Patent US20260256769A1, “ARTERIOSCLEROSIS SUPPRESSION THROUGH INHIBITION OF TRANSCRIPTION FACTOR FoxO1” (TEIKYO UNIVERSITY, priority 2022, published 2026)

Assays:
[1] = tested on: atherosclerosis lesions in the aortic sinus; experiment: Atherosclerosis lesions in the aortic sinus evaluated using HE staining; type: in vivo; settings: wild-type mice (Syk+/+), 20 mg/kg intraperitoneally for 8 weeks, vs DMSO-treated group
Experimental: Next, after the FoxO1 inhibitor AS1842856 (20 mg/kg) was intraperitoneally administered to wild-type mice (Syk^+/+) for 8 weeks, atherosclerosis lesions in the aortic sinus were evaluated using HE staining.

[2] = tested on: bone marrow-derived macrophages; experiment: CD11c on the cell surface of bone marrow-derived macrophages by flow cytometry; type: cell-based, mice; settings: vs DMSO-treated control group
Experimental: Next, we assumed that the transcription factor that binds to the nucleotide sequence of the determined region as above was FoxO1, and a FoxO1 inhibitor AS1842856 was administered to the bone marrow-derived macrophages respectively collected from Syk gene-deficient mice (Syk^del/del) and wild-type mice (Syk^+/+), and CD11c on the cell surface was measured by flow cytometry.

bone marrow monocytes = experiment: CD11c expression in bone marrow monocytes by real-time PCR after intraperitoneal administration; type: in vivo; settings: wild-type mice, 20 mg/kg intraperitoneally for 2 weeks, vs DMSO-treated group
Experimental: (§1) In this Example, the following experiment was carried out. First, the FoxO1 inhibitor AS1842856 (20 mg/kg) was intraperitoneally administered to Syk gene-deficient mice (Syk^del/del) and wild-type mice (Syk^+/+) for 2 weeks. The expression of CD11c in collected bone marrow monocytes was measured by real-time PCR, and the CD11c expression (%) in peripheral blood monocytes (CD115 positive cells) was measured by flow cytometry. CD115 is a monocyte marker.

[3] = tested on: peripheral blood monocytes (CD115 positive cells); experiment: CD11c expression (%) in peripheral blood monocytes (CD115 positive cells) by flow cytometry after intraperitoneal administration; type: in vivo; settings: wild-type mice, 20 mg/kg intraperitoneally for 2 weeks, vs DMSO-treated group
Experimental: as §1

Question: Which “atherosclerosis lesions in the aortic sinus” value [1] does the source give for `CCn1cc(C(=O)O)c(=O)c2c(N)c(F)c(NC3CCCCC3)cc21` [AS1842856, 5-amino-7-(cyclohexylamino)-1-ethyl-6-fluoro-4-oxo-1,4-dihydroquinoline-3-carboxylic acid] here?
Answer: The value was “Atherosclerosis was suppressed”.

Question: What about the “expression of CD11c on the cell surface” value ([2]; bone marrow-derived macrophages from Syk gene-deficient mice (Syk del/del)) of the same compound?
Answer: Its value is “no significant difference”.

Question: And the “expression of CD11c on the cell surface” value ([2]; bone marrow-derived macrophages from wild-type mice (Syk+/+))?
Answer: The value was “significantly decreased”.

Question: What about the “CD11c expression in bone marrow monocytes” value (bone marrow monocytes) of the same compound?
Answer: Its value is “significantly decreased”.

Question: What about the “CD11c/CD115 ratio in peripheral blood monocytes” value [3] of the same compound?
Answer: Its value is “significantly decreased”.
